The values below come from ChEMBL document CHEMBL1129420 (J Med Chem, 1996).

SMILES strings stand for the structures.

This test is described as follows: Concentration for hnps- Phospholipase A2 was evaluated using radioligand [3H]arachidonate binding assay in Escherichia coli membranes. The test is classed as cell membranes.

`CCCCCCCCOCC(COP(=O)(O)OCCN)OP(=O)(O)CCCCCCC` (stereo unspecified): the concentration for half-maximal inhibition (IC50) was 200 nM.
